The NIST ThermoML archive (doi:10.1016/j.jct.2018.05.023)
Numbers after ± are expanded uncertainties.

Test: not given
Conditions: Crystal; DTA
`C1CCCCC1` [cyclohexane] showed a Normal melting temperature of 7 ± 1.1 °C.
For `CCCCCCCCCCCC` [dodecane], the Normal melting temperature was -9.4 ± 1.1 °C.
In the case of `CCCCCCCCCCCCCCCCCCCC` [eicosane], the Normal melting temperature is reported as 35.0 ± 1.1 °C.
`[Ga]` [gallium] gave a Normal melting temperature of 30.2 ± 1.1 °C.
Work on `CCCCCCCCCCCCCCCC` [hexadecane] yielded a Normal melting temperature of 18 ± 1.1 °C.
`CCCCCCCCCCCCCC` [tetradecane] gave a Normal melting temperature of 5.8 ± 1.1 °C.
Work on `O` [water] yielded a Normal melting temperature of 0.4 ± 1.1 °C.

Test: Molar enthalpy of transition or fusion
Conditions: Crystal; DSC
For `[Ga]` [gallium], the “Molar enthalpy of transition or fusion” value was 1.39 ± 0.12 kcal/mol.
